{"source": "patent US6599499B1", "about": "“Uses of diterpenoid triepoxides as an anti-proliferative agent” (priority 1999, dated 2003)", "key": {"[1]": {"tested_on": "Dx5 (MDR uterine sarcoma) cell line", "test": "cells", "method": "(§1) Cells and Transfections. H23 (non-small cell lung cancer) and ZR-75 (breast cancer) cell lines were purchased from ATCC. The Bcl-2 expression vector was provided by Fred Hutchinson Cancer Research Center, Seattle, Wash. MES-SA and Dx5 cell lines were provided by Branimir Sikic (Stanford University). Cells were cultured in the appropriate medium with 10% FCS supplemented with L-glutamine, penicillin and streptomycin. To examine the effect of Bcl-2 on cell survival, the Bcl-2 expression vector or the vector alone was co-transfected with a β galactosidase expression vector (Invitrogen, Carlsbad, Calif.) at a 5:1 ratio using lipofectamine plus (GIBCO BRL, Gaithersburg, Md.) into Dx5 cells. After 36 h cells were stained with 5-bromo4-chloro-3-indolyl […]-D-galactopyranoside (X-gal). Cell survival was calculated as number of total cells-blue cells/total number of cells in a 90 mm^2 area from duplicate plates and expressed as the mean ±S.D.\n(§2) Cell death reagents and assays. Cell viability was measured by an MTT assay as recently described (Lee et al. (1999) J. Biol. Chem. 274:13451-13455. z-VAD-fluoromethylketone (z-VAD.fmk) was obtained from Alexis Biochemicals, San Diego, Calif. The effect of z-VAD.fmk on cell viability was analyzed by annexin and propidium iodide staining followed by FACS analysis according to the manufacturer's protocol (Clontech Laboratories, Palo Alto, Calif.). The analysis of apoptosis in histologic sections was done by terminal deoxynucleotidyl transferase (TdT)-mediated d-UTP nick end labeling (TUNEL) of slides from paraffin sections of day 3 tumors harvested from the mice 24 h after the second of two daily treatments with PG490-88 or saline. TUNEL staining was done according to the manufacturer's protocol (Boehringer Mannheim, Indianapolis, Ind.) and then the histology slides were counterstained with methyl green. DNA was isolated from cells for analysis of internucleosomal DNA laddering followed by agarose gel electrophoresis and ethidium bromide staining.\n(§3) In FIG. 1A, ZR-75 (breast cancer), H23 (non-small cell lung cancer) and Dx5 (MDR uterine sarcoma) cell lines were treated with PG490 at dosages shown and harvested 48 h later for analysis of cell viability by an MTT assay. Data is the mean of three experiments ±S.D. In FIG. 1B, DNA was isolated from untreated or PG490-treated cells 16 h after the addition of PG490 followed by agarose gel electrophoresis and ethidium bromide staining."}, "[2]": {"tested_on": "H23 (non-small cell lung cancer) cell line", "test": "cells", "method": "as §1, §2, §3"}, "[3]": {"tested_on": "ZR-75 (breast cancer) cell line", "test": "cells", "details": "ZR75, 48 h", "method": "as §1, §2, §3"}, "[4]": {"tested_on": "Dx5 and H23 cells", "test": "Growth arrest / cell cycle progression in Dx5 and H23 cells", "format": "cell-based, human"}, "[5]": {"tested_on": "p53", "test": "p53 protein level by immunoblotting (Example 2)", "format": "cell-based, human", "details": "for increase in p53 protein: MCF-7 cells", "method": "(§4) Immunoblotting. At 8 hours after triptolide and/or doxorubicin treatment cells were harvested at the times indicated and lysed using HNET buffer (50 mM HEPES pH 7.5, 100 mM NaCl, 1 mM EGTA, and 1% Triton X-100) supplemented with 1 mM DTT, 1 mM PMSF and protease inhibitors cocktail (Boehringer Mannheim, Germany). 35 μg of protein was loaded on 10% SDS-PAGE followed by transferring to PVDF membrane. Immunoblotting was performed as previously described using a p53 mouse monoclonal antibody from Oncogene Research Products (Lee et al. (1999) J Biol Chem 274:13451-5)."}, "[6]": {"tested_on": "Mdm2", "test": "Mdm2 mRNA (RT-PCR) and protein (immunoblot) in MCF-7 cells", "format": "cell-based, human", "method": "RT-PCR. RNA was prepared from MCF-7 cells using Rneasy Mini Kit from Qiagen Inc. (Valencia, Calif.). cDNAs were prepared using M-MLV reverse transcriptase (Gibco) with 2 μg of total RNA. 1/20 of total cDNA was used in limited (25 cycles) PCR reactions using Taq polymerase (Gibco). The following primer pairs were used: p53 [SEQ ID NO:1] 5′-[…]-3′ and 5′-[SEQ ID NO:2] TCTTCUTXGGCTGGGGAGAG-3′, mdm2, [SEQ ID NO:3] 5′-[…]-3′ and [SEQ ID NO:4] 5′-[…]-3′, p21, [SEQ ID NO:5] 5′-[…]-3′ and [SEQ ID NO:6] 5′-[…]-3′, and glyceraldehyde-3-phosphate dehydrogenase (GAPDH)- [SEQ ID NO:7] 5′-[…]-3′ and [SEQ ID NO:8] 5′-[…]-3′.\nas §4\nIn the experiments shown in FIG. 5, RT-PCR was performed using 2 μg of total RNAs extracted from MCF-7 cells. […] GADPH was used as a loading control. The plasmid pBP100-GL2 which contains a p53-binding site in the mdm2 promoter was transiently transfected into MCF-7 cells, and cellular lysates were used for the luciferase assay."}, "[7]": {"tested_on": "p53 wild-type (+/+) MEFs", "test": "Cell viability of p53+/+ mouse embryonic fibroblasts", "format": "cell-based", "text": "Cell culture and luciferase assay.\nFunctional p53 enhances triptolide-induced cell death."}, "[8]": {"tested_on": "p21", "test": "p21 protein level by immunoblot in MCF-7 cells", "format": "cell-based, human", "details": "triptolide-treated MCF-7 cells", "method": "as §4\nImmunoblot analysis using other antibodies was performed as described above. The band intensity was measured by NIH Image 1.62."}, "[9]": {"tested_on": "p53 translation", "test": "p53 translation by [35S]methionine metabolic labeling of MCF-7 cells", "format": "cell-based, human", "details": "MCF-7, triptolide 20 ng/ml pretreatment 6 h", "method": "Metabolic labeling of MCF-7cells. Cells were grown to 80% confluence followed by pretreatment with triptolide (20 ng/ml) for 6 h in the appropriate medium. Cells were washed twice with short-term labeling medium (RPMI with 5% dialyzed FCS supplemented with L-glutamine, penicillin, and streptomycin). To deplete intracellular pools of methionine short-term labeling medium was added for 15 min at 37° C., then replaced by short-term labeling medium containing 0.1 mCi/ml [^35S] methionine (Amersham, Inc.). Cells were labeled for 30 min at 37° C. and washed with ice-cold PBS before harvesting for immunoprecipitation. The cells were lysed using RIPA buffer supplemented with protease inhibitors and immunoprecipitated using an agarose-conjugated p53 mAb (Ab-6, Oncogene Research Products) followed by 10% SDS-PAGE. The intensity of labeled p53 protein was measured by NIH Image 1.62."}, "[10]": {"details": "Mus musculus, Fibroblast, read-out: reduction of cell viability"}}, "note": "Where “and” joins values, the source holds several entries; their conditions need not be identical. Identical values can stand only once.", "data": [{"smiles": "CC(C)[C@]12O[C@H]1[C@@H]1O[C@]13[C@]1(O[C@H]1C[C@H]1C4=C(CC[C@@]13C)C(=O)OC4)[C@@H]2O", "note": "[PG490, triptolide]", "values": [{"measurement": "difference in sensitivity between Dx5 cell line and parent MES-SA cell line", "setting": "[1]", "value": "No significant difference"}, {"measurement": "cytotoxicity at 0.01 µg/mL", "setting": "[1]; Homo sapiens, 48 h, read-out: decrease in cell viability", "value": "65 to 70", "unit": "%"}, {"measurement": "cytotoxicity at 0.02 µg/mL", "setting": "[1]; Homo sapiens, 48 h, read-out: reduction of cell viability", "value": "> 80", "unit": "%"}, {"measurement": "cytotoxicity at 0.01 µg/mL", "setting": "[2]; Homo sapiens, NCI-H23, 48 h, read-out: decrease in cell viability", "value": "65 to 70", "unit": "%"}, {"measurement": "cytotoxicity at 0.02 µg/mL", "setting": "[2]; Homo sapiens, NCI-H23, 48 h, read-out: reduction of cell viability", "value": "> 80", "unit": "%"}, {"measurement": "cell death, % of cells", "setting": "[2]; mutant p53 lung cancer cell line", "value": "over 80%"}, {"measurement": "cytotoxicity at 0.01 µg/mL", "setting": "[3]; read-out: decrease in cell viability", "value": 24, "unit": "%"}, {"measurement": "cytotoxicity at 0.02 µg/mL", "setting": "[3]; read-out: reduction of cell viability", "value": "> 80", "unit": "%"}, {"measurement": "growth arrest / cell cycle progression", "setting": "[4]", "value": "did not cause growth arrest or significantly affect cell cycle progression"}, {"measurement": "increase in p53 steady state protein levels", "setting": "[5]; MCF-7 and A549 cells, dose- and time-dependent", "value": "2-4 fold"}, {"measurement": "increase in p53 protein", "setting": "[5]", "value": "greater than 4 fold"}, {"measurement": "change in levels of the Mdm2 protein", "setting": "[6]; MCF-7, triptolide 5 ng/ml, 8 or 24 hours", "value": "no significant change"}, {"measurement": "increase in Mdm2 protein", "setting": "[6]; MCF-7, triptolide 20 ng/ml, 8 h", "value": "approximately 1.5 fold"}, {"measurement": "Mdm2 protein", "setting": "[6]; MCF-7, triptolide 20 ng/ml, 24 h", "value": "almost a complete loss"}, {"measurement": "mdm2 mRNA", "setting": "[6]; cells treated with triptolide", "value": "time-dependent decrease"}, {"measurement": "cytotoxicity at 0.005 µg/mL", "setting": "[7]; [10]", "value": 48, "unit": "%"}, {"measurement": "cytotoxicity at 0.01 µg/mL", "setting": "[7]; [10]", "value": 73, "unit": "%"}, {"measurement": "decrease in the level of p21 protein", "setting": "[8]", "value": 3, "unit": "fold"}, {"measurement": "increase in p53 translation", "setting": "[9]", "value": "4.9 fold and 5 fold"}]}, {"smiles": "COc1cccc2c1C(=O)c1c(O)c3c(c(O)c1C2=O)C[C@@](O)(C(=O)CO)C[C@@H]3O[C@H]1C[C@H](N)[C@H](O)[C@H](C)O1", "note": "[doxorubicin, reference compound]", "values": [{"measurement": "increase in p53 protein", "setting": "[5]", "value": 2, "unit": "fold"}, {"measurement": "increase in the Mdm2 mRNA and protein", "setting": "[6]; MCF-7 cells, doxorubicin 100 nM", "value": "1.5-2 fold"}, {"measurement": "more cell death in MEF cells with wild-type p53 than in those without functional p53", "setting": "[7]", "value": 35, "unit": "%"}]}]}
